# Measurements from patent US9504676B2, “Molecules inhibiting a metabolic pathway involving the Syk protein tyrosine kinase and method for identifying said molecules” (CENTRE NATIONAL DE LA RECHERCHE SCIENTIFIQUE, priority 2008, dated 2016).
# System: BALB/c mice
# Test: Passive cutaneous anaphylaxis (PCA)
# Format: in vivo
# Parameters: unit not given here
# Conditions: local intradermal injection in the ear
# Description: Finally, to extend these observations to mast cell functions in vivo, the inventors tested the effects of C-13 on passive systemic (PSA) and cutaneous anaphylaxis (PCA) induced in BALB/c mice by administering DNP-specific IgE molecules followed by intravenous stimulation with DNP-KLH hapten. […] The intensity of systemic anaphylaxis was determined by measuring both the drop in body temperature and the increase in vascular permeability following antigen administration.
# • 1) Chemical products and antibodies. A chemical bank of 3000 molecules (a varied subset) was acquired from ChemBridge, Inc. (San Diego, Calif.). Stocks of solutions of small molecules were prepared at a rate of 10 mM in DMSO (dimethylsulphoxide), except for C-13 (methyl 2-{5-[(3-benzyl-4-oxo-2-thioxo-1,3-thiazolidin-5-ylidene)methyl]-2-furyl}benzoate, ChemBridge ID No. 6197026) prepared in DMF (dimethylformamide). Unless specified otherwise, all the reagents were supplied by Sigma. […] The binding of G4G11 with Syk was assessed by adding the 9E10 monoclonal antibody conjugated with HRP detecting the amino acid sequence EQKLISEEDLN of human c-myc protein located at the C-terminal end of the scFv fragment. To generate Syk mutants, targeted mutagenesis was used on GST:Syk 6-242 protein and the binding of G4G11 with the mutants was assessed in the presence of 5 μM of C-13. • 3) Cells, culture conditions and functional tests. […]
compound,measurement,value
"COC(=O)c1ccccc1-c1ccc(/C=C2/SC(=S)N(Cc3ccccc3)C2=O)o1 [Molecule C-13, methyl 2-{5-[(3-benzyl-4-oxo-2-thioxo-1,3-thiazolidin-5-ylidene)methyl]-2-furyl}benzoate]","estimated IC50, inhibitory effect on PCA",~25
